Measurements reported in US8008230B2, “Synergistic antifungal DDAC compositions” (priority 2004, dated 2011).
Where two headings read alike, the source gives them in different places.

Legend:
[1] = system: Penicillium digitatum; test: Curative treatment by dipping of lemons artificially inoculated with Penicillium digitatum; assay type: in vivo; settings: read-out: % Efficacy
Procedure: Aqueous test solutions were prepared with concentrations of 10 μg/ml, 100 μg/ml and 1000 μg/ml of DDAC (I); and 500 μg/ml of imazalil (II-a). These test solutions were used to prepare mixtures comprising component (I) and component (II-a) with a concentration respectively of 1000 μg/ml of (I) and 500 μg/ml of (II-a); 100 μg/ml of (I) and 500 μg/ml of (II-a) and 10 μg/ml of (I) and 500 μg/ml of (II-a).
Lemons were artificially inoculated with a 10 mm diameter cork borer dipped in a spore suspension containing 10^6 cfu/ml of Penicillium digitatum. The lemons were treated after 24 hours by submerging for 30 seconds in one of the test solutions.
Treated and untreated lemons were incubated for 14 days in a dark climate room at 20° C. After the incubation period, the diameter of fungal growth was measured and % efficacy (growth inhibition) versus control was calculated. Fungal growth was quantified by measuring the distance, in mm, between the perimeter of the 10 mm diameter inoculation ring and the perimeter of the damaged zone.
Synergy was considered to occur when the observed effect, or measured activity, of a combination of both components was greater than the corresponding Ec value.

[2] = system: Botrytis cinerea; test: Poison plate assay (MIC and synergy index); assay type: cell-based, Botrytis cinerea strain BC03019; settings: 168 h
Procedure: Activity against fungal growth was determined with the poison plate assay. A calculated amount of a stock solution (containing either DDAC, boscalid, fenhexamid, pyrimethanil, thiophanate-methyl, triflumizole, azoxystrobin, dimoxystrobin, picoxystrobin, or pyraclostrobin in a concentration of 500 ppm in dimethyl sulfoxide) was pipetted into 24-well plates in order to reach a final test concentration ranging from 0.21 to 5 ppm in 12 steps when mixed with a culture medium. These culture media were either Glucose Agar (GA) (10 g glucose, 1.5 g K2HPO4, 2 g KH2PO4, 1 g (NH4)2SO4, 0.5 g MgSO4 and 12.5 g agar in 1 liter deionised water) when pyrimethanil was used as the test substance or Potato Dextrose Agar (PDA) (4 g potato infusion, 20 g bacto dextrose and 15 g bacto agar in 1 liter deionised water) for any of the other test substances. The medium was inoculated with 2 μl of a spore/mycelium suspension. The 24-well plates were kept in the dark at a temperature of 22° C., and a relative humidity of 75% and evaluated for fungal growth after one week.
The following fungi species were used in the poison plate assay: Penicillium digitatum strain Sas (sensitive to demethylase inhibiting fungicides), Penicillium digitatum strain LDW930223 (reduced sensitivity to demethylase inhibiting fungicides), Penicillium italicum strain H17 (reduced sensitivity to demethylase inhibiting fungicides), Botrytis cinerea strain BC03019, Geotrichum candidum, or Gloeosporium album strain A18.
The lowest concentration in ppm of each test compound or mixture of test compounds sufficient to inhibit visible growth was taken as the minimum inhibitory concentration (MIC). When no fungal growth was observed, the abbreviation “ng” was used in Table 2. Synergy was calculated using the Synergy Index method described by von Kull et al. (F. C. Kull, P. C. Eismann, H. D. Sylvestrowicz, R. L. Mayer, 1961, Applied Microbiology 9: 538-541).
Synergistic Index (SI)=(x/m)+(y/n) • m and n are the MIC values of test substances 1 and 2 respectively, when applied alone • x and y are the respective quantities of test substances 1 and 2 in mixtures which also cause the complete inhibition of fungal growth, i.e. x and y equal [quantity of test substances 1 and 2, resp., in the mixture (e.g. 0.8 and 0.2, 066 and 0.33 . . . )] multiplied by [MIC-value of the mixture]. […] A result smaller than 1 indicates a synergistic effect of the combination.

[3] = % DDAC + % test substance 0 + 100 (test substance alone), Potato Dextrose Agar, one week, read-out: MIC (minimum inhibitory concentration in ppm total a.i.)

## C=CCOC(Cn1ccnc1)c1ccc(Cl)cc1Cl (stereo not drawn) [Imazalil (IIa)]
[1]; test concentration 500 μg/ml, lemon, dipped 24 h after inoculation, 14 days incubation
  Emax at 500 µg/mL: 78%

## COC(=O)NC(=S)Nc1ccccc1NC(=S)NC(=O)OC [thioph. methyl, 4,4′-(o-phenylene)bis(3-thioallophanate)]
[2]; [3]
  MIC: 2.11 µg/mL

## Cc1cc(C)nc(Nc2ccccc2)n1 [pyrimethanil, 4,6-dimethyl-N-phenyl-2-pyrimidinamine]
[2]; % DDAC + % test substance 0 + 100 (test substance alone), Glucose Agar, one week, read-out: MIC (minimum inhibitory concentration in ppm total a.i.)
  MIC: 2.11 µg/mL

## COC(=O)N(OC)c1ccccc1COc1ccn(-c2ccc(Cl)cc2)n1 [pyraclostrobin, methyl N-(2-[1-(4-chlorophenyl)-1H-pyrazol-3-yloxymethyl]phenyl](N-methoxy)carbamate]
[2]; [3]
  MIC: > 5 µg/mL

## CCCOC/C(=N\c1ccc(Cl)cc1C(F)(F)F)n1ccnc1 [triflumizole, (E)-4-chloro-α,α,α-trifluoro-N-(1-imidazol-1-yl-2-propoxyethylidene)-o-toluidine]
[2]; read-out: MIC (minimum inhibitory concentration in ppm total a.i.), % DDAC + % test substance 0 + 100 (test substance alone), Potato Dextrose Agar, one week
  MIC: > 5 µg/mL

## CCCCCCCCCC[N+](C)(C)CCCCCCCCCC.[Cl-] [DDAC, didecyl dimethyl ammonium chloride]
[1]
  Emax at 10 µg/mL: 0%
  Emax at 100 µg/mL: 0%
  Emax at 1000 µg/mL: 22%
[2]; read-out: MIC (minimum inhibitory concentration in ppm total a.i.), % DDAC + % test substance 100 + 0 (DDAC alone), Glucose Agar (pyrimethanil series), one week
  MIC: 5 µg/mL
[2]; read-out: MIC (minimum inhibitory concentration in ppm total a.i.), % DDAC + % test substance 100 + 0 (DDAC alone), Potato Dextrose Agar, one week
  MIC: > 5 µg/mL

## O=C(Nc1ccccc1-c1ccc(Cl)cc1)c1cccnc1Cl [boscalid, 2-chloro-N-(4′-chlorobiphenyl-2-yl)-nicotinamide]
[2]; [3]
  MIC: > 5 µg/mL

## CC1(C(=O)Nc2ccc(O)c(Cl)c2Cl)CCCCC1 [fenhexamid, 2′,3′-dichloro-4′-hydroxy-1-methylcyclohexanecarboxanilide]
[2]; [3]
  MIC: 1.58 µg/mL
